# What was measured:
# Assay in all cases: combination Emax (second highest fraction inhibited in the dose matrix, 72 h); higher = more inhibition; extreme values may be limits of the assay
# COLO-679 (Melanoma) = system: COLO-679 (Melanoma)
# Procedure, shortened: (§1)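 Cell lines grown in DMEM/F12 or RPMI with 10% FBS were plated in 1536-well plates and held 24 hours at 37°C, 5% CO2 before 72 hours of exposure to two-drug dose matrices, with DMSO typically at 0.2%. CellTiter-Glo 2.0 luminescence gave viability, which was converted to inhibition. Vehicle wells were set to 0 and blank wells to 1. Combination Emax is the second-highest inhibition in the matrix, and Bliss excess is the observed combination effect minus the expected EA + EB − EA·EB, where EA and EB are the single-agent effects.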
# [1] = system: Ca-Ski (Cervical Carcinoma)
# Procedure, shortened: as §1
# [2] = system: EFO-21 (Ovarian Carcinoma)
# Procedure, shortened: as §1
# [3] = system: EJM (Plasma Cell Myeloma)
# Procedure, shortened: as §1
# EW-1 (Ewing's Sarcoma) = system: EW-1 (Ewing's Sarcoma)
# Procedure, shortened: as §1
# [4] = system: G-401 (Other Solid Carcinomas)
# Procedure, shortened: as §1
# [5] = system: HAL-01 (B-Lymphoblastic Leukemia)
# Procedure, shortened: as §1
# [6] = system: HCC1500 (Breast Carcinoma)
# Procedure, shortened: as §1
# [7] = system: KGN (Other Solid Carcinomas)
# Procedure, shortened: as §1
# [8] = system: KMRC-1 (Kidney Carcinoma)
# Procedure, shortened: as §1
# [9] = system: KOPN-8 (B-Lymphoblastic Leukemia)
# Procedure, shortened: as §1
# [10] = system: ME-180 (Cervical Carcinoma)
# Procedure, shortened: as §1
# [11] = system: ML-2 (Acute Myeloid Leukemia)
# Procedure, shortened: as §1
# [12] = system: MOLT-4 (T-Lymphoblastic Leukemia)
# Procedure, shortened: as §1
# [13] = system: MV-4-11 (Acute Myeloid Leukemia)
# Procedure, shortened: as §1
# [14] = system: Mo-T (Other Blood Carcinomas)
# Procedure, shortened: as §1
# [15] = system: NCI-H1838 (Lung Adenocarcinoma)
# Procedure, shortened: as §1
# [16] = system: NCI-H650 (Lung Adenocarcinoma)
# Procedure, shortened: as §1
# [17] = system: SNU-387 (Hepatocellular Carcinoma)
# Procedure, shortened: as §1
# [18] = system: SW982 (Other Solid Carcinomas)
# Procedure, shortened: as §1
Structure (SMILES),combination Emax (COLO-679 (Melanoma)),combination Emax [1],combination Emax [2],combination Emax [3],combination Emax (EW-1 (Ewing's Sarcoma)),combination Emax [4],combination Emax [5],combination Emax [6],combination Emax [7],combination Emax [8],combination Emax [9],combination Emax [10],combination Emax [11],combination Emax [12],combination Emax [13],combination Emax [14],combination Emax [15],combination Emax [16],combination Emax [17],combination Emax [18]
"C=CCn1c(=O)c2cnc(Nc3ccc(N4CCN(C)CC4)cc3)nc2n1-c1cccc(C(C)(C)O)n1 [AZD1775] + O=C(c1cc(Cc2n[nH]c(=O)c3ccccc23)ccc1F)N1CCN(C(=O)C2CC2)CC1 [Olaparib] (first compound max 1 µM, partner max 10 µM)",0.491,0.797,0.308,0.891,0.907,0.769,0.935,0.227,0.745,0.279,0.904,0.457,1,1,0.978,0.456,0.477,0.316,0.567,0.787
"CC1(C)CCC(CN2CCN(c3ccc(C(=O)NS(=O)(=O)c4ccc(NCC5CCOCC5)c([N+](=O)[O-])c4)c(Oc4cnc5[nH]ccc5c4)c3)CC2)=C(c2ccc(Cl)cc2)C1 [Venetoclax] + CCN(CCO)CCCOc1ccc2c(Nc3cc(CC(=O)Nc4cccc(F)c4)[nH]n3)ncnc2c1 [AZD2811] (first compound max 1 µM, 7x7, partner max 1 µM)",0.133,0.346,0.375,0.261,0.365,0.483,0.959,0.855,0.509,0.158,0.974,0.243,0.998,1,1,0.611,0.226,0.178,0.215,0.55
"Cc1c2c(nn1C)CSCc1cc(n(C)n1)CSc1cc(c3ccccc3c1)OCCCc1c(C(=O)O)n(C)c3c-2c(Cl)ccc13 [AZD5991] + CCN(CCO)CCCOc1ccc2c(Nc3cc(CC(=O)Nc4cccc(F)c4)[nH]n3)ncnc2c1 [AZD2811] (first compound max 1 µM, 7x7, partner max 1 µM)",0.42,0.7,0.343,0.949,0.482,0.615,0.468,0.53,0.574,0.194,0.983,0.343,1,0.941,1,0.189,0.447,0.61,0.458,0.688
"CN(C)CCCOc1ccc(-c2ccc3ncc4c(c3c2)n(C2CCOCC2)c(=O)n4C)cn1 [AZD0156] + C=CCn1c(=O)c2cnc(Nc3ccc(N4CCN(C)CC4)cc3)nc2n1-c1cccc(C(C)(C)O)n1 [AZD1775] (first compound max 1 µM, partner max 1 µM)",0.552,0.7,0.472,0.858,0.886,0.646,0.917,0.283,0.806,0.259,0.85,0.423,1,1,0.924,0.402,0.465,0.263,0.464,0.71
"CN(CCO)CC[C@H](CSc1ccccc1)Nc1ccc(S(=O)(=O)NC(=O)c2ccc(N3CCC([C@@H](O)c4ccccc4-c4ccc(Cl)cc4)CC3)cc2)cc1S(=O)(=O)C(F)(F)F [AZD4320] + CN(C)CCCOc1ccc(-c2ccc3ncc4c(c3c2)n(C2CCOCC2)c(=O)n4C)cn1 [AZD0156] (first compound max 1 µM, 7x7, partner max 1 µM)",0.162,0.268,0.179,0.162,0.705,0.266,0.853,0.998,0.425,0.2,0.898,0.246,0.963,0.976,1,0.483,0.225,0.203,0.183,0.225
"Cc1c2c(nn1C)CSCc1cc(n(C)n1)CSc1cc(c3ccccc3c1)OCCCc1c(C(=O)O)n(C)c3c-2c(Cl)ccc13 [AZD5991] + CC1(C)CCC(CN2CCN(c3ccc(C(=O)NS(=O)(=O)c4ccc(NCC5CCOCC5)c([N+](=O)[O-])c4)c(Oc4cnc5[nH]ccc5c4)c3)CC2)=C(c2ccc(Cl)cc2)C1 [Venetoclax] (first compound max 1 µM, 7x7, partner max 1 µM)",0.388,0.682,0.207,0.959,0.684,0.565,0.984,1,0.263,0.289,0.936,0.286,1,0.857,1,0.196,0.306,0.329,0.454,0.192
"CC1(C)CCC(CN2CCN(c3ccc(C(=O)NS(=O)(=O)c4ccc(NCC5CCOCC5)c([N+](=O)[O-])c4)c(Oc4cnc5[nH]ccc5c4)c3)CC2)=C(c2ccc(Cl)cc2)C1 [Venetoclax] + C[C@@H]1COCCN1C2=NC(=NC(=C2)C3(CC3)[S@](=N)(=O)C)C4=C5C=CNC5=NC=C4 [AZD6738] (first compound max 1 µM, 7x7, partner max 10 µM)",0.639,0.581,0.444,0.869,0.944,0.703,1,0.855,0.751,0.486,1,0.571,1,1,1,0.735,0.6,0.276,0.588,0.676
"NC1(C(=O)N[C@@H](CCO)c2ccc(Cl)cc2)CCN(c2ncnc3[nH]ccc23)CC1 [Capivasertib] + C[C@@H]1COCCN1C2=NC(=NC(=C2)C3(CC3)[S@](=N)(=O)C)C4=C5C=CNC5=NC=C4 [AZD6738] (first compound max 10 µM, 7x7, partner max 10 µM)",0.634,0.582,0.415,0.908,0.938,0.751,0.97,0.335,0.9,0.579,0.986,0.755,0.928,1,0.975,0.417,0.494,0.406,0.613,0.727
"CC1(C)CCC(CN2CCN(c3ccc(C(=O)NS(=O)(=O)c4ccc(NCC5CCOCC5)c([N+](=O)[O-])c4)c(Oc4cnc5[nH]ccc5c4)c3)CC2)=C(c2ccc(Cl)cc2)C1 [Venetoclax] + C[C@@H](Nc1cc(F)cc(F)c1)c1cc(C(=O)N(C)C)cc2c(=O)cc(N3CCOCC3)oc12 [AZD8186] (first compound max 1 µM, 7x7, partner max 3 µM)",0.273,0.114,0.248,0.278,0.303,0.345,0.988,0.736,0.333,0.532,0.829,0.129,0.983,0.422,1,0.632,0.0996,0.142,0.21,0.382
"COc1cccc(OCCCN)c1-c1cc(Nc2cnc(C#N)cn2)n[nH]1 [Prexasertib] + C=CCn1c(=O)c2cnc(Nc3ccc(N4CCN(C)CC4)cc3)nc2n1-c1cccc(C(C)(C)O)n1 [AZD1775] (first compound max 1 µM, partner max 1 µM)",0.827,0.874,0.742,0.954,0.966,0.905,1,0.541,0.862,0.627,0.995,0.652,1,1,1,0.539,0.704,0.732,0.729,0.825
"CCN(CCO)CCCOc1ccc2c(Nc3cc(CC(=O)Nc4cccc(F)c4)[nH]n3)ncnc2c1 [AZD2811] + C[C@@H]1COCCN1C2=NC(=NC(=C2)C3(CC3)[S@](=N)(=O)C)C4=C5C=CNC5=NC=C4 [AZD6738] (first compound max 1 µM, 7x7, partner max 10 µM)",0.679,0.607,0.45,0.858,0.852,0.536,0.99,0.312,0.822,0.566,0.855,0.43,0.985,1,0.998,0.556,0.643,0.117,0.494,0.71
"CCN(CCO)CCCOc1ccc2c(Nc3cc(CC(=O)Nc4cccc(F)c4)[nH]n3)ncnc2c1 [AZD2811] + O=C(c1cc(Cc2n[nH]c(=O)c3ccccc23)ccc1F)N1CCN(C(=O)C2CC2)CC1 [Olaparib] (first compound max 1 µM, 7x7, partner max 10 µM)",0.281,0.289,0.203,0.167,0.709,0.496,0.37,0.22,0.629,0.19,0.709,0.252,0.835,0.974,0.961,0.369,0.275,0.164,0.17,0.658

# — the supplement of paper PMC11061612
